Numbers after ± are expanded uncertainties.
Assay: mn = molality of the nth substance listed, in mol/kg
Settings: 101 kPa, Liquid, Linear variable-path acoustic interferometer, m1 = 0.512

Row | SMILES | speed of sound (298.15 K) [m/s] | speed of sound (303.15 K) [m/s] | speed of sound (308.15 K) [m/s] | speed of sound (313.15 K) [m/s] | speed of sound (318.15 K) [m/s] | speed of sound (323.15 K) [m/s]
1 | O=[N+]([O-])[O-].[K+] [potassium nitrate] + O | 1517.8 ± 1.8 | 1526.8 ± 1.8 | 1536.3 ± 1.8 | 1544.4 ± 1.8 | 1551.1 ± 1.8 | 1556.6 ± 1.9
2 | O=S(=O)([O-])[O-].[K+].[K+] [potassium sulfate] + O | 1563.6 ± 1.9 | 1571.6 ± 1.8 | 1580.3 ± 1.8 | 1587.6 ± 1.8 | 1593.5 ± 1.8 | 1598.3 ± 1.9
